Values quoted from earlier work as cited in US20050065125A1, “2-alkylidene-19-nor-vitamin D derivatives for the treatment of osteopenia or male osteoporosis” (Pfizer Inc, priority 2003, published 2005).

Conditions: chronic mode, 7 days, rats

| SMILES | Bone calcium mobilization (serum calcium) activity relative to the native hormone 1,25-(OH)2D3 |
| --- | --- |
| C=C1[C@H](O)CC(=C/C=C2\CCC[C@]3(C)[C@@H]([C@H](C)CCCC(C)(C)O)CC[C@@H]23)C[C@H]1O [2-Methylene-19-Nor-1,25-(OH)2D3, 1α,25-dihydroxy-2-methylene-19-nor-vitamin D3] | 10-100 times |
| C=C1[C@H](O)CC(=C/C=C2\CCC[C@]3(C)[C@@H]([C@@H](C)CCCC(C)(C)O)CC[C@@H]23)C[C@H]1O [2-Methylene-19-Nor-20S-1,25-(OH)2D3, (20S)-1α,25-dihydroxy-2-methylene-19-nor-vitamin D3] | at least 10 times |
